Source: ChEMBL document CHEMBL1201862, “PubChem BioAssay data set” (2004)
The source made the active and inactive calls.

What was measured:
[1] = potency of ADAM10 substrate cleavage blockers – biochemical, QFRET, dose response (AID 743254);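 note: ADAM10 enzyme with the DM2 quenched FRET peptide as substrate; EDANS fluorescence gain as the protease cuts the substrate; inhibitor potency against ADAM10 proteolytic activity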
[2] = molecular target: Disintegrin and metalloproteinase domain-containing protein 17 (Homo sapiens, UniProt P78536); assay: inhibition of ADAM17 substrate cleavage – biochemical, quenched FRET substrate, counter-screen for ADAM10 exosite inhibitor project, dose response (AID 743253)
[3] = reduction of Shn3 3'UTR-driven luciferase in osteoblasts – cell-based, Clone20 osteoblasts, firefly luciferase, cherry-picked, dose response (AID 624132); type: functional;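 note: firefly luciferase luminescence from reporter carrying the Shn3 3'UTR in osteoblasts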
Galanin receptor type 3 = molecular target: T1, Galanin receptor type 3 (Homo sapiens, UniProt O60755); assay: Fluorescence-based cell-based primary high throughput dose response assay to identify antagonists of the Galanin Receptor 3 (GalR3).; type: functional
T1 sequence (O60755 whole entry): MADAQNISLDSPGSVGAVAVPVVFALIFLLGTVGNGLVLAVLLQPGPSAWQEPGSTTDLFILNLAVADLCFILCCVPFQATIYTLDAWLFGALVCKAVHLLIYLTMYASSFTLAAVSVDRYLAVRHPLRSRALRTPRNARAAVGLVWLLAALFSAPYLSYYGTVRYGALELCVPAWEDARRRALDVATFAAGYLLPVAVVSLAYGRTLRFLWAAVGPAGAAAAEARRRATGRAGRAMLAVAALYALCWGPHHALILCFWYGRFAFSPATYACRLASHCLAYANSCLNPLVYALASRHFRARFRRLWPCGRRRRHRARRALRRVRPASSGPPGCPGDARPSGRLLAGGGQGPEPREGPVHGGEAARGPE

[4] = molecular target: COUP transcription factor 2 (Homo sapiens, UniProt P24468); assay: Luminescence-based cell-based high throughput dose response assay to identify inhibitors of COUP-TFII (NR2F2).; type: functional;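 note: HEK293 cells transiently cotransfected with COUP-TFII expression vector and reporter; luciferase reporter luminescence driven by COUP-TFII from the pX2-168 reporter plasmid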
[5] = non-specific 3'UTR reporter inhibition in Clone20-Shn3RL – cell-based, Renilla luciferase, cherry-picked, counter-screen for Shn3 inhibitor project, dose response (AID 624133); type: functional
cells [6] = type: functional, cell-based; conditions: HEK-CNG
Protein Wnt-3a = Protein Wnt-3a (Mus musculus, UniProt P27467); assay: antagonism of Wnt3a pathway luciferase reporter – Wnt-LIGHT cells, luminescence, selectivity assay for Gli-SUFU antagonist project, dose response (AID 651570); type: functional; conditions: read-out: IC50_Mean;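 note: Wnt-LIGHT reporter cells stimulated with conditioned medium from Wnt3a-producing cells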
[7] = loss of viability in HepG2 cells – cell-based, CellTiter-Glo, cherry-picked, cytotoxicity control for Shn3 inhibitor project, dose response (AID 624134); type: functional
cells [8] = assay: cells
Major prion protein = Major prion protein (Homo sapiens, UniProt P04156); type: functional, cell-based
[9] = viability loss in HepG2 liver cells – cell-based, ATP luminescence, cherry-pick, set 6, cytotoxicity control, dose response (AID 1053125); type: functional
cells [10] = conditions: A549
[11] = IC50 of Artemis nuclease activity blockers – biochemical, fluorescence intensity, dose response (AID 720701); type: functional;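 note: Artemis endonuclease enzyme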
[12] = molecular target: T2, Rac GTPase-activating protein 1 (Homo sapiens, UniProt Q9H0H5); assay: blockers of MgcRacGAP-driven Rac1 GTP hydrolysis – biochemical, ADP Hunter fluorescence, primary and confirmatory, confirmation (AID 624330); type: functional
T2 sequence (Q9H0H5 whole entry): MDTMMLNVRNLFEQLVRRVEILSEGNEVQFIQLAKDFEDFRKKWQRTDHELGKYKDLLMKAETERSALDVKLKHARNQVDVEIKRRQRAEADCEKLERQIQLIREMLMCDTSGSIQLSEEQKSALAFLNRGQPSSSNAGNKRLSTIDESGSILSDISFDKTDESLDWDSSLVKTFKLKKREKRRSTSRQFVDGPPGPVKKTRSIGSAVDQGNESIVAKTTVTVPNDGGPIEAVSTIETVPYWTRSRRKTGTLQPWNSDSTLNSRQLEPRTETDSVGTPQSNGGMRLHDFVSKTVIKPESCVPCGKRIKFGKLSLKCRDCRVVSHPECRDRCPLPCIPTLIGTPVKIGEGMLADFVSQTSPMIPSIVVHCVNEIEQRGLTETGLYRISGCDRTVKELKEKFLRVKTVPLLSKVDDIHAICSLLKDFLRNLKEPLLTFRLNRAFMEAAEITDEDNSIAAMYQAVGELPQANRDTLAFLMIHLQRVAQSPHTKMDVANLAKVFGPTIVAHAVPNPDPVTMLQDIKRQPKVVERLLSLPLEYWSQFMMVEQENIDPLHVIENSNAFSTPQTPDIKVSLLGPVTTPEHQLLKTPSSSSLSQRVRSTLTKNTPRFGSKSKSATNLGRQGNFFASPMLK

[13] = molecular target: FAD-linked sulfhydryl oxidase ALR (Homo sapiens, UniProt P55789); assay: ALR-catalysed DTT oxidation blockers – biochemical, H2O2 detection, luminescence, cherry-pick, dose response (AID 493248)
Protein Tat = Protein Tat (Human immunodeficiency virus type 1 group M subtype B (isolate HXB2)(HIV-1), UniProt P04608); type: functional;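 note: tat binding to TAR RNA read out by fluorescence polarization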
[14] = molecular target: Peroxisome proliferator-activated receptor gamma/Nuclear receptor coactivator 1 (Homo sapiens, UniProt P37231); assay: (§1) TR-FRET dose response biochemical High Throughput Screening assay for agonists of the steroid receptor coactivator 1 (SRC-1) recruitment by the peroxisome proliferator-activated receptor gamma (PPAR gamma): non-selective agonists. [Related pubchem assays (depositor defined):AID1300, AID1808, AID504735, AID631]; type: protein assay
[15] = molecular target: Peroxisome proliferator-activated receptor gamma/Nuclear receptor coactivator 3 (Homo sapiens, UniProt P37231); assay: as §1, with “3 (SRC-3)” for “1 (SRC-1)”, “assays: 1301 (Confirmation screen.), 1048 (Primary screen.)]” for “assays (depositor defined):AID1300, AID1808, AID504735, AID631]”; type: functional
[16] = molecular target: Peroxisome proliferator-activated receptor gamma/Nuclear receptor coactivator 2 (Homo sapiens, UniProt P37231); assay: TR-FRET dose response biochemical High Throughput Screening assay for agonists of the steroid receptor coactivator 2 (SRC-2) recruitment by the peroxisome proliferator-activated receptor gamma (PPAR gamma): non-selective agonists. [Related pubchem assays: 1297, 1032 ]; type: functional

**Q.** What does the source list for `NC(=O)[C@@H]1CC2(CC(c3cccc(NC(=O)CC(c4ccccc4)c4ccccc4)c3)=NO2)CN1C(=O)COc1ccc(Cl)cc1` (some centres not stated)?
**A.** IC50 [1]: > 69.5 µM (inactive); IC50 [2]: > 69.5 µM (inactive)

**Q.** Which AC50 [3] does the source give for `Cc1nn(C)c(C(=O)NCc2ccc(Cl)cc2)c1Cl` here?
**A.** Its AC50 is 1.74 µM (active).

**Q.** And the IC50 (Galanin receptor type 3)?
**A.** The IC50 was 0.158 µM (active).

**Q.** What about the IC50 [4] of the same compound?
**A.** The IC50 was 14 µM (inactive).

**Q.** What about the AC50 [5] of the same compound?
**A.** Its AC50 is 6.29 µM (active).

**Q.** And the EC50 (cells [6])?
**A.** Its EC50 is > 29.9 µM (inactive).

**Q.** What about the IC50 (Protein Wnt-3a) of the same compound?
**A.** The IC50 was 1.92 µM (active).

**Q.** What about the AC50 [7] of the same compound?
**A.** The AC50 was 49.8 µM (active).

**Q.** With `CCOC(=O)N1CCN(C(=O)COc2ccc3ccccc3c2Br)CC1` as the compound, how does the IC50 (cells [8]) read?
**A.** Its IC50 is > 138 µM (inactive).

**Q.** What about the IC50 (Major prion protein) of the same compound?
**A.** The IC50 was 6.28 µM (active).

**Q.** With `CN(C)CCOCCOc1ccc(Cl)c2ccccc12` as the compound, how does the AC50 [9] read?
**A.** The AC50 was > 52 µM (inactive).

**Q.** What about the AC50 (cells [10]) of the same compound?
**A.** Its AC50 is > 52 µM (inactive).

**Q.** Which IC50 [11] does the source give for `CCOC(=O)C1CCCN(Cc2nc(N)nc(Nc3ccc(Cl)cc3)n2)C1` (configuration not stated) here?
**A.** Its IC50 is > 20 µM (inactive).

**Q.** Which results are given for `CC(=O)N1CCN(c2ccc(NCc3ccc(F)cc3)cc2)CC1`?
**A.** IC50 [12]: 12.9 µM (active); AC50 [13]: 0.198 µM (active); IC50 (Protein Tat): > 100 µM (inconclusive)

**Q.** What does the source list for `CNC(=O)NC(=O)CSc1nc(-c2cccs2)c(C#N)c(=O)[nH]1`?
**A.** EC50 [14]: > 79.4 µM (inactive); EC50 [15]: > 79.4 µM (not active); EC50 [16]: > 79.4 µM (not active); IC50 (Major prion protein): 0.876 µM (active)

**Q.** For `CNC(=O)NC(=O)CSc1nc(O)c(C#N)c(-c2cccs2)n1`, which IC50 (cells [8]) is on record?
**A.** The IC50 was > 138 µM (inactive).
